Results on two compounds are retold here after BindingDB's records for doi:10.1021/jm0502182 (Institute of Cancer Research, 2005).

Each structure is given as a SMILES string.

This experiment in a line: Inhibitory activity against carboxypeptidase G2 from pseudomonas RS16.

As usually defined, the Ki is the dissociation constant of the complex between target and ligand, obtained from inhibition or displacement. Lower therefore signals a stronger hold on the target. On to `O=C(O)CC[C@H](NC(=O)c1c(F)c(F)c(N(CCCl)CCCl)c(F)c1F)C(=O)O` [(S)-2-{4-[Bis-(2-chloro-ethyl)-amino]-2,3,5,6-tetrafluoro-benzoylamino}-pentanedioic acid], for which the affinity corresponds to a Ki of 127 µM. Consider `O=C(O)CC[C@H](NC(=O)c1c(F)c(F)c(N(CCI)CCI)c(F)c1F)C(=O)O` [(S)-2-{4-[Bis-(2-iodo-ethyl)-amino]-2,3,5,6-tetrafluoro-benzoylamino}-pentanedioic acid], for which the Ki came out at 276 µM.
